Assay results: patent US5877210A, “Phosphotyrosine phosphatase inhibitors or phosphotyrosine kinase activators for controlling cellular proliferation” (priority 1995, dated 1999)

Experiments:
PP2A = target: T1, PP2A (Homo sapiens, UniProt P67775); assay: Serine/threonine phosphatase PP2A inhibition; format: biochemical; settings: vs CD45 and PTP1B
T1 construct: purchased Upstate Biotechnology, Lake Placid, N.Y

[1] = tested on: murine B cell lymphoma A20 cells; assay: Anti-phosphotyrosine immunoblot; format: cell-based; settings: 16 hr
T cell line CEM = assay: Clonogenic assay in methylcellulose; format: cell-based, human; settings: dose as high as 100 μM BMLOV
Method: (§1) The selective cytotoxicity of BMLOV was examined in clonogenic assays. Cells were grown in methylcellulose media and the number of colonies formed after seven days of treatment with various doses of the drug were determined. The clonogenic assays were performed with six replicates for each treatment as described [F. M. Uckun et al., J. Exp. Med. 163:347-368 (1986); F. M. Uckun & J. A. Ledbetter, Proc. Natl. Acad. Sci. USA 85:8603-8607 (1988)). The data is given plus/minus the standard error of the mean.

[2] = tested on: MDAMB-453 breast carcinoma cells; assay: Clonogenic assay in methylcellulose; format: cell-based; settings: dose as high as 100 μM BMLOV
Method: as §1

BCL1 = assay: [3H]thymidine incorporation assay; format: cell-based, murine; settings: for [3H]cpm incorporation: seven days
Method: For each cell type, the cells were passaged uniformly for all drug doses given during the seven-day period. The cells were then pulsed for six hours with [^3 H]thymidine. The extent of DNA synthesis was then determined by counting the radioactivity incorporated into the cells.
For assays of cellular proliferation, cells were grown five days in the presence of the indicated concentrations of BMLOV, pulsed 6 hr with [^3 H]-thymidine (New England Nuclear, Boston, Mass.), and counted in a liquid scintillation counter. Human peripheral blood lymphocytes (PBL) from normal volunteers were isolated from lymphocyte separation medium (Litton Bionetics, Kensington, Md.) by density gradient centrifugation. Monocytes were depleted from PBL by two rounds of plastic absorption for 30 minutes at 37° C. B cells were enriched for by negative selection using complement plus monoclonal antibodies to CD2, CD3, CD4, and CD8 for complement depletion. Clonogenic assays of colony formation in methylcellulose medium were performed as previously described (F. M. Uckun et al. (1992), supra).

Ramos B cells [3] = format: cell-based, human
Text: These effects were synergistic rather than additive in that an approximately 5-fold enhancement in sensitization for the combination treatment was observed relative to expected additive effects based on the use of either treatment alone.

Ramos B cells [4] = assay: Ca2+ signaling in Ramos B cells; format: cell-based, human
Method: Ca^2+ responses were measured using indo-1 (Molecular Probes, Eugene, Oreg.) and a model 50 HH/2150 flow cytometer (Ortho, Westwood, Mass.) as previously described (P. S. Rabinovitch et al., J. Immunol. 137:952-961 (1986)). The histograms were analyzed by programs (Cicero, Cytomation Inc., Ft. Collins, Colo.) that calculate the mean indo-1 violet/blue fluorescence ratio versus time. There are 100 data points on the X (time) axis for all flow cytometric data.
In the experiments shown in FIG. 22, Ramos B cells were treated overnight with the indicated concentrations of BMLOV. The baseline level of intracellular free Ca^2+ ([Ca^2+ ]i) was established for 1 min, and then the cells were treated with anti-human IgM F(ab')2 (α-μ). The gap in the trace reflects the addition of α-μ. An acute Ca^2+ response to the addition of BMLOV to the Ramos cells was not observed, in contrast to the rapid elevation of Ca^2+ observed following treatment with pervanadate or H2 O2 (G. L. Schieven et al., Blood 82:1212-1220 (1993)); G. L. Schieven et al., J. Biol. Chem. 268:16688-16692 (1993)).

[5] = Tolerability of BMLOV in mice; format: in vivo
ZAP-70 = ZAP-70 tyrosine phosphorylation in T cells; format: cell-based; settings: 16 h BMLOV, anti-CD3 stimulation
Method: In the experiments shown in FIG. 25, human PHA-induced T cell blasts were treated overnight with the indicated concentrations of BMLOV. In Panel A, the baseline level of intracellular free Ca^2+ ([Ca^2+ ]i) was established for 1 min, and then the cells were treated with biotinylated anti-CD3 mAb (G19-4). After 5 min avidin was added (gap in the trace) to cross-link the antibody. In Panel B, assays were performed as in Panel A, but in the presence of 5 mM EGTA. […] In the experiments shown in FIG. 26, cells were treated 16 h with BMLOV and then stimulated with anti-CD3 mAb G19-4 for 5 min. Cells were then washed and resuspended in fresh media at equal concentrations of BMLOV at 37° C. Cells were then harvested and lysed at times following the initiation of CD3 stimulation as indicated. Antibody binding in immunoblots was detected by ECL.

[6] = tested on: normal peripheral B cells; settings: human, 120 h, 25 µM
Method: Cell death was measured by staining cells with propidium iodine followed by flow cytometry (EPICS C, Coulter) as previously described (N. K. Damle et al. (1993), supra; Y. Liu & C. A. J. Janeway, "Interferon Gamma Plays a Critical Role in Induced Cell Death of Effector T Cells: A Possible Third Mechanism of Self-Tolerance," J. Exp. Med. 172:1735-1739 (1990)). Flow cytometric data on forward scatter and red fluorescence arising from propidium iodine binding to cellular DNA was collected for 5,000 cells and analyzed by the Quadstat Program (N. K. Damle, (1993), supra). The membranes of dead cells are permeable to propidium iodine (Y. Liu & C. A. Janeway, (1990), supra), but cells undergoing the process of apoptosis can shrink in size while temporarily maintaining plasma membrane integrity (J. J. Cohen et al., "Apoptosis and Programmed Cell Death and Immunity," Annu. Rev. Immunol. 10:267-293 (1992)). […] Only cells displaying normal size and resistance to staining by propidium iodide are considered viable cells and are found in the lower left quadrant (M. K. Damle et al. (1993), supra). The percentage of cells in each quadrant was calculated by the Quadstat program. […]
To provide a final measure of cell death, propidium iodide staining of cells was used. […] Viability was measured by staining with propidium iodide followed by flow cytometric analysis as described above. […]

[7] = tested on: 70Z/3 B cell leukemia cell line; assay: [3H]thymidine incorporation assay; format: cell-based, murine; settings: 702/3, 5 days
Method: (§2) The cell lines A20, 70Z-3, L1210, and P388D were used. A20 is a B cell lymphoma cell line; 70Z/3 is a B cell leukemia cell line; L1210 is a T cell leukemia cell line; and P388D is a myeloid leukemia cell line. The cells were grown for 5 days in the presence of pV(phen) and pulsed with [^3 H]-thymidine on day 5. The extent of DNA synthesis was then determined by counting the radioactivity incorporated into the cells, as in Example 5, supra. […] The effects on L1210 cells and P388D cells are particularly noteworthy because these cell lines have been extensively used by the National Cancer Institute to identify anti-cancer drugs.

L1210 = assay: [3H]thymidine incorporation assay; format: cell-based, murine; settings: 5 days
Method: as §2

P388D = assay: [3H]thymidine incorporation assay; format: cell-based, murine; settings: 5 days
Method: as §2

T1 sequence (P67775 whole entry): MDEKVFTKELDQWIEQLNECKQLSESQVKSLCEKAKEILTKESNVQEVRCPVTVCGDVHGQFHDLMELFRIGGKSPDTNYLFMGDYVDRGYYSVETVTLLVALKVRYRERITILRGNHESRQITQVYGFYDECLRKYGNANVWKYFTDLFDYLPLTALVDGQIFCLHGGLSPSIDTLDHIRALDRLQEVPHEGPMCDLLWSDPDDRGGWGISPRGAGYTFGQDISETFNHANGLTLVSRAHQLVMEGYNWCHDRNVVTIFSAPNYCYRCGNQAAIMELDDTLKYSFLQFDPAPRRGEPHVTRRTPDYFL

Cc1occc(=O)c1[O-].Cc1occc(=O)c1[O-].[O]=[V+2] [BMLOV, Bis(maltolato)oxovanadium (IV)]
concentration for similar inhibition relative to phosphotyrosine phosphatases (PP2A): over 100 fold
induction of tyrosine phosphorylation [1]: highly responsive
inhibition of clonogenic growth (T cell line CEM): inhibited only moderately
inhibition of clonogenic growth [2]: inhibited only moderately
[3H]cpm incorporation (BCL1; 1 μM BMLOV): 265036 cpm
[3H]cpm incorporation (BCL1; 5 μM BMLOV): 226714 cpm
[3H]cpm incorporation (BCL1; 10 μM BMLOV): 55396 cpm
[3H]cpm incorporation (BCL1; 25 μM BMLOV): 195 cpm
sensitivity of proliferation to BMLOV, in words (BCL1; 25 μM, 5 or 7 days): highly sensitive
enhancement in sensitization relative to expected additive effects (Ramos B cells [3]; combination of BMLOV and radiation): approximately 5 fold
increase in cell death relative to radiation alone (Ramos B cells [3]; ramos b cells, 1 µM): 10 fold
increase in clonogenic cell death relative to radiation alone (Ramos B cells [3]; ramos b cells, 2 µM): 50 fold
Ca2+ signals induced by cross-linking sIgM (Ramos B cells [4]; 25 μM BMLOV, overnight): Complete inhibition
UV-induced Ca2+ signals (Ramos B cells [4]; Ramos B cells): greatly increased and prolonged UV-induced Ca^2+ signals
basal Ca2+ levels (Ramos B cells [4]; Ramos B cells, BMLOV 16 h): elevation of basal Ca^2+ levels
tolerability ([5]; 1.6 mM BMLOV in drinking water continuously for 10 days): no overt ill effects
tolerability ([5]; intraperitoneal doses up to 1 mg and oral doses up to 1.6 mg): without ill effects except for some temporary lethargy
tyrosine phosphorylation of ZAP-70 or the associated zeta chain (ZAP-70): little effect was observed
viable cells [6]: 27%

[Na+].[O]=[V-]12([O][O]1)[O][O]2.c1cnc2c(c1)ccc1cccnc12 [pV(phen), sodium (1,10-phenanthroline) oxodiperoxovanadium (V)]
[3H]-thymidine radioactivity incorporated ([7]; 5 μM pV(phen)): 53 ± 27
[3H]-thymidine radioactivity incorporated ([7]; 10 μM pV(phen)): 49 ± 34
[3H]-thymidine radioactivity incorporated (L1210; 5 μM pV(phen)): 244 ± 155
[3H]-thymidine radioactivity incorporated (L1210; 10 μM pV(phen)): 464 ± 116
[3H]-thymidine radioactivity incorporated (P388D; 5 μM pV(phen)): 2513 ± 1424
[3H]-thymidine radioactivity incorporated (P388D; 10 μM pV(phen)): 362 ± 60
